Read-outs that look alike come from different tables or passages of the source.
Biological target: T1, HCMV polymerase (Human cytomegalovirus, UniProt P08546)
T1 construct: made in house; host or cells: recombinant baculovirus-infected SF-9 insect cells
Test: biochemical
Procedure: The HCMV polymerase assay is performed using a scintillation proximity assay (SPA) as described in several references, such as N. D. Cook, et al., Pharmaceutical Manufacturing International, pages 49-53 (1992); K. Takeuchi, Laboratory Practice, September issue (1992); U.S. Pat. No. 4,568,649 (1986); which are incorporated by reference herein. Reactions are performed in 96-well plates. The assay is conducted in 100 μl volume with 5.4 mM HEPES (pH 7.5), 11.7 mM KCl, 4.5 mM MgCl2, 0.36 mg/ml BSA, and 90 nM ^3 H-dTTP. Assays are run with and without CHAPS, (3-[(3-Cholamidopropyl)dimethylammonio]-1-propane-sulfonate) at a final concentration of 2 mM. HCMV polymerase is diluted in enzyme dilution buffer containing 50% glycerol, 250 mM NaCl, 10 mM HEPES (pH 7.5), 100 μg/ml BSA, and 0.01% sodium azide. The HCMV polymerase, which is expressed in recombinant baculovirus-infected SF-9 cells and purified according to literature procedures, is added at 10% (or 10 μl) of the final reaction volume, i.e., 100 μl. Compounds are diluted in 50% DMSO and 10 μl are added to each well. Control wells contain an equivalent concentration of DMSO. Unless noted otherwise, reactions are initiated via the addition of 6 nM biotinylated poly(dA)-oligo(dT) template/primer to reaction mixtures containing the enzyme, substrate, and compounds of interest. Plates are incubated in a 25 C. or 37 C. H2 O bath and terminated via the addition of 40 μl/reaction of 0.5 M EDTA (pH 8) per well. Reactions are terminated within the time-frame during which substrate incorporation is linear and varied depending upon the enzyme and conditions used, i.e., 30 min. for HCMV polymerase. Ten μl of streptavidin-SPA beads (20 mg/ml in PBS/10% glycerol) are added following termination of the reaction. Plates are incubated 10 min. at 37 C., then equilibrated to room temperature, and counted on a Packard Topcount. Linear regressions are performed and IC50 's are calculated using computer software.
A modified version of the above HCMV polymerase assay is performed as described above, but with the following changes: Compounds are diluted in 100% DMSO until final dilution into assay buffer. In the previous assay, compounds are diluted in 50% DMSO. 4.5 mM dithiotherotol (DTT) is added to the polymerase buffer.

[1] = HCMV polymerase, SPA, modified assay: compounds in 100% DMSO, 4.5 mM DTT

T1 sequence (P08546 whole entry): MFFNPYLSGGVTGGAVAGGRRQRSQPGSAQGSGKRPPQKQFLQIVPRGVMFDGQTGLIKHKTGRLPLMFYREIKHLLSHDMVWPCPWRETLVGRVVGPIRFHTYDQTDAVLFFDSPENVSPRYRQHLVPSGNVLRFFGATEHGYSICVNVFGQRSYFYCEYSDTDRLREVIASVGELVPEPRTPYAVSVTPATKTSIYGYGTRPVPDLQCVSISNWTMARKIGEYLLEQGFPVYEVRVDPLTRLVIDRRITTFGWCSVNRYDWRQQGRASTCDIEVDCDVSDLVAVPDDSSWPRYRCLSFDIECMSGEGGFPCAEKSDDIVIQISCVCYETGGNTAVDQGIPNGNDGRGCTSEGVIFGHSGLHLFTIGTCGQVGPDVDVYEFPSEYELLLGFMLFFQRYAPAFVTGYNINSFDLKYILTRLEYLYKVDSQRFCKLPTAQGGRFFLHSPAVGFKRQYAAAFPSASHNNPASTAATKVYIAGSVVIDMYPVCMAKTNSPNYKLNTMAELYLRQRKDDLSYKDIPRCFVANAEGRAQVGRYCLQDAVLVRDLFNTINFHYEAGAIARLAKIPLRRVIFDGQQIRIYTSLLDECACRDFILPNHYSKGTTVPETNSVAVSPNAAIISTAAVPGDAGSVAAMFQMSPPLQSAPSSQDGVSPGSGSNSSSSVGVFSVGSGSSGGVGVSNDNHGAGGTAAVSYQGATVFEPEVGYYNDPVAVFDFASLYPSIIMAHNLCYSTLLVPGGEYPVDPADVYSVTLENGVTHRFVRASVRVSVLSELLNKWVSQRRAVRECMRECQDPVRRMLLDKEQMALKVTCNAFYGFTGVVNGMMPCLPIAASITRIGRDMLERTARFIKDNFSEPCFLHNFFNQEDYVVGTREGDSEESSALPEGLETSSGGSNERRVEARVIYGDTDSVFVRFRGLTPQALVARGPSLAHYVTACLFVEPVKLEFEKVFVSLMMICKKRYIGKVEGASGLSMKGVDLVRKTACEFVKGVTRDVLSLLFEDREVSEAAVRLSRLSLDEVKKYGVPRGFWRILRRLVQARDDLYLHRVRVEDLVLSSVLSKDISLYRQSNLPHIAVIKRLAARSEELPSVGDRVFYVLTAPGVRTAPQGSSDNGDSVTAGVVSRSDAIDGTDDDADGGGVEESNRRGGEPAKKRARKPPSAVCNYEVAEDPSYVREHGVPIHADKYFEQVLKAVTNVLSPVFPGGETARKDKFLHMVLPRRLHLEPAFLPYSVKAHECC

| SMILES | IC50 [1] [nM] | IC50 [nM] |
| --- | --- | --- |
| O=C(NCc1ccc(Cl)cc1)c1cn(CCN2CCOCC2)c2ccc(C#CCO)cc2c1=O [Example 19, N-(4-Chlorobenzyl)-6-(3-hydroxy-1-propynyl)-1-[2-(4-morpholinyl)ethyl]-4-oxo-1,4-dihydro-3-quinolinecarboxamide] |  | 1800 |
| Cn1cc(C(=O)NCc2ccc(Cl)cc2)c(=O)c2cc(CCCO)cc(OC(CO)CO)c21 [Example 5, N-(4-Chlorobenzyl)-8-[2-hydroxy-1-(hydroxymethyl)ethoxy]-6-(3-hydroxypropyl)1-methyl-4-oxo-1,4-dihydro-3-quinolinecarboxamide] | 1600 |  |
| CC(C)(C)n1cc(C(=O)NCc2ccc(Cl)cc2)c(=O)c2cc(C#CCO)ccc21 [Example 39] | 2200 |  |
| C=Cc1ccc2c(c1)c(=O)c(C(=O)NCc1ccc(Cl)cc1)cn2C [Example 54, N-(4-Chlorobenzyl)-1-methyl-4-oxo-6-vinyl-1,4-dihydro-3-quinolinecarboxamide] | 3300 |  |
| O=C(NCc1ccc(Cl)cc1)c1cn(CCCS(=O)(=O)CCCO)c2ccc(CN3CCOCC3)cc2c1=O [Example 71, N-(4-Chlorobenzyl)-1-(3-[(3-hydroxypropyl)sulfonyl]propyl)-6-(4-morpholinylmethyl)-4-oxo-1,4-dihydro-3-quinolinecarboxamide] | 800 |  |
| CC(C)(C)OCCOCCn1cc(C(=O)NCc2ccc(Cl)cc2)c(=O)c2cc(CN3CCOCC3)ccc21 [Example 91, 1-{2-[2-(tert-Butoxy)ethoxy]ethyl}-N-(4-chlorobenzyl)-6-(4-morpholinylmethyl)-4-oxo-1,4-dihydro-3-quinolinecarboxamide] | 2100 |  |
| CN(CCO)Cc1ccc2c(c1)c(=O)c(C(=O)NCc1ccc(Cl)cc1)cn2C [Example 45, N-(4-Chlorobenzyl)-6-(((2-hydroxyethyl)(methyl)amino)-methyl)-1-methyl-4-oxo-1,4-dihydro-3-quinolinecarboxamide] | 11900 |  |
| COCCOCCn1cc(C(=O)NCc2ccc(Cl)cc2)c(=O)c2cc(CN3CCOCC3)ccc21 [Example 84] | 1200 |  |
| Cn1cc(C(=O)NCc2ccc(Cl)cc2)c(=O)c2cc(/C=C\CO)ccc21 [Example 23, N-(4-chlorobenzyl)-6-[(Z)-3-hydroxy-1-propenyl]-1-methyl-4-oxo-1,4-dihydro-3-quinolinecarboxamide] | 620 |  |
| O=C(NCc1ccc(Cl)cc1)c1cn(CCCOC2CCCCO2)c2c(F)cc(CO)cc2c1=O (centres unmarked) [Example 6, N-(4-Chlorobenzyl)-8-fluoro-6-(hydroxymethyl)-4-oxo-1-[3-(tetrahydro-2H-pyran-2-yloxy)propyl]-1,4-dihydro-3-quinolinecarboxamide] |  | 7200 |
| Cn1cc(C(=O)NCc2ccc(Cl)cc2)c(=O)c2cc(CN(CCO)Cc3ccccc3)ccc21 [Example 50, 6-((Benzyl(2-hydroxyethyl)amino)methyl)-N-(4-chlorobenzyl)-1-methyl-4-oxo-1,4-dihydro-3-quinolinecarboxamide] | 11500 |  |
| CN(C)n1cc(C(=O)NCc2ccc(Cl)cc2)c(=O)c2cc(C#CCO)ccc21 [Example 120, N-(4-Chlorobenzyl)-1-(dimethylamino)-6-(3-hydroxy-1-propynyl)-4-oxo-1,4-dihydro-3-quinolinecarboxamide] | 2500 |  |
| Cn1cc(C(=O)NCc2ccc(Cl)cc2)c(=O)c2cc(CN3CCCSCC3)ccc21 [Example 47, N-(4-Chlorobenzyl)-1-methyl-4-oxo-6-(1,4-thiazepan-4-ylmethyl)-1,4-dihydro-3-quinolinecarboxamide] | 7200 |  |
| COCCOCCn1cc(C(=O)NCc2ccc(Cl)cc2)c(=O)c2cc(CCCO)ccc21 [Example 83, N-(4-chlorobenzyl)-6-(3-hydroxypropyl)-1-[2-(2-methoxyethoxy)ethyl]-4-oxo-1,4-dihydro-3-quinolinecarboxamide] | 600 |  |
| Cn1cc(C(=O)NCc2ccc(Cl)cc2)c(=O)c2cc(/C=C\CO)cc(F)c21 [Example 9, N-(4-Chlorobenzyl)-8-fluoro-6-[(Z)-3-hydroxy-1-propenyl)-1-methyl-4-oxo-1,4-dihydro-3-quinolinecarboxamide] | < 780 |  |
| Nn1cc(C(=O)NCc2ccc(Cl)cc2)c(=O)c2cc(C#CCO)ccc21 [Example 118, 1-Amino-N-(4-chlorobenzyl)-6(3-hydroxy-1-propynyl)-4-oxo-1,4-dihydro-3-quinolinecarboxamide] | 1100 |  |
| C[S+]([O-])Cn1cc(C(=O)NCc2ccc(Cl)cc2)c(=O)c2cc(CN3CCOCC3)ccc21 (centres unmarked) [Example 79, N-(4-Chlorobenzyl)-1-[(methylsulfinyl)methyl]-6-(4-morpholinylmethyl)-4-oxo-1,4-dihydro-3-quinolinecarboxamide] | 1100 |  |
| Cn1cc(C(=O)NCc2ccc(Cl)cc2)c(=O)c2cc(CN3CC(O)(O)C3)ccc21 [Example 78, N-(4-Chlorobenzyl)-6-[(3,3-dihydroxy-1-azetidinyl)methyl]-1-methyl-4-oxo-1,4-dihydro-3-quinolinecarboxamide] | 270 |  |
| CCOCCOCCn1cc(C(=O)NCc2ccc(Cl)cc2)c(=O)c2cc(CN3CCOCC3)ccc21 [Example 58, N-(4-Chlorobenzyl)-1-[2-(2-ethoxyethoxy)ethyl]-6-(4-morpholinylmethyl)-4-oxo-1,4-dihydro-3-quinolinecarboxamide] | 1400 |  |
| CS(=O)(=O)Cn1cc(C(=O)NCc2ccc(Cl)cc2)c(=O)c2cc(CN3CCOCC3)ccc21 [Example 80, N-(4-Chlorobenzyl)-1-[(methylsulfonyl)methyl]-6-(4-morpholinylmethyl)-4-oxo-1,4-dihydro-3-quinolinecarboxamide] | 1100 |  |

Further compounds by falling IC50 [1], results first:

| IC50 [1] [nM] | SMILES | IC50 [nM] |
| --- | --- | --- |
| 23600 | CCN(CCO)c1ccc2c(c1)c(=O)c(C(=O)NCc1ccc(Cl)cc1)cn2C [Example 24, N-(4-Chlorobenzyl)-6-[ethyl(2-hydroxyethyl)amino]-1-methyl-4-oxo-1,4-dihydro-3-quinolinecarboxamide] |  |
| 4400 | COCCOCCn1cc(C(=O)NCc2ccc(Cl)cc2)c(=O)c2cc(CN(C)CC(O)c3ccc(O)cc3)ccc21 (centres unmarked) [Example 90, N-(4-Chlorobenzyl)-6-{[[2-hydroxy-2-(4-hydroxyphenyl)ethyl](methyl)amino]methyl}-1-[2-(2-methoxyethoxy)ethyl]-4-oxo-1,4-dihydro-3-quinolinecarboxamide] |  |
| 3800 | CN(C)CCCn1cc(C(=O)NCc2ccc(Cl)cc2)c(=O)c2cc(C#CCO)ccc21 [Example 20, N-(4-Chlorobenzyl)-1-[3-(dimethylamino)propyl]-6-(3-hydroxy-1-propynyl)-4-oxo-1,4-dihydro-3-quinolinecarboxamide] |  |
| 1700 | CCN(CC)CCn1cc(C(=O)NCc2ccc(Cl)cc2)c(=O)c2cc(C#CCO)cc(F)c21 [Example 10, N-(4-Chlorobenzyl)-1-[2-(diethylamino)ethyl]-8-fluoro-6-(3-hydroxy-1-propynyl)-4-oxo-1,4-dihydro-3-quinolinecarboxamide] |  |
| 1300 | CN(Cc1ccc2c(c1)c(=O)c(C(=O)NCc1ccc(Cl)cc1)cn2C)CC(O)c1ccccc1 (centres unmarked) [Example 63, N-(4-Chlorobenzyl)-6-{[(2-hydroxy-2-phenylethyl)(methyl)-amino]methyl}-1-methyl-4-oxo-1,4-dihydro-3quinolinecarboxamide] |  |
| 1200 | O=C(NCc1ccc(Cl)cc1)c1cn(CCOCCO)c2ccc(CN3CCOCC3)cc2c1=O [Example 57, N-(4-Chlorobenzyl)-1-[2-(2-hydroxyethoxy)ethyl]-6-(4-morpholinylmethyl)-4-oxo-1,4-dihydro-3-quinolinecarboxamide] |  |
| 900 | CCS(=O)(=O)CCn1cc(C(=O)NCc2ccc(Cl)cc2)c(=O)c2cc(CN3CCOCC3)ccc21 [Example 69, N-(4-Chlorobenzyl)-1-[2-(ethylsulfonyl)ethyl]-6-(4-morpholinylmethyl)-4-oxo-1,4-dihydro-3-quinolinecarboxamide] |  |
| 830 | O=C(NCc1ccc(Cl)cc1)c1cn(CS(=O)(=O)c2ccc(Cl)cc2)c2ccc(CN3CCOCC3)cc2c1=O [Example 103, N-(4-Chlorobenzyl)-1-([(4-chlorophenyl)sulfonyl]methyl)-6-(4-morpholinylmethyl)-4-oxo-1,4-dihydro-3-quinolinecarboxamide] |  |
| 420 | O=C(NCc1ccc(Cl)cc1)c1cn(N2CCOCC2)c2ccc(CN3CCOCC3)cc2c1=O [Example 112, N-(4-Chlorobenzyl)-1-(4-morpholinyl)-6-(4-morpholinylmethyl)-4-oxo-1,4-dihydro-3-quinolinecarboxamide] |  |
